In data set [1] the test system is Collagenase from Clostridium histolyticum (ChC). The experiment in a line: Collagenase inhibitory activity assay (FALGPA substrate). In kind it is biochemical. Particulars: approximately 25 μg of sample in the reaction mixture, 15 min preincubation. The procedure:
The inhibition of collagenase followed the methodology proposed by Thring et al.. First, a solution containing the surfactants at 1000 μg/mL was prepared. An aliquot of 40 μL of each sample was used in the assay. Collagenase from Clostridium histolyticum (ChC) was dissolved in tricine buffer (50 mM, pH 8.0) immediately before use at an initial concentration of 0.35 U/mL. The synthetic substrate N-[3- (2-furyl) acryloyl]-Leu-Gly-Pro-Ala (FALGPA) (40 μL) was dissolved in the kit buffer (60 μL) according to the supplier information. The samples of C3(LA)2, C6(LA)2 and C9(LA)2 were incubated with the enzyme for 15 min before the substrate addition. The final reaction mixture contained tricine buffer, 0.8 mM FALGPA, 0.1 U of ChC and approximately 25 μg of each surfactant. Ultrapure water was used as a negative control, while the positive control was EGCG solution, prepared at the same concentration of the surfactants. The absorbance at λ = 345 nm was measured immediately after the substrate incorporation and continuously during 20 min in kinetic mode using an Elx800 Microplate Reader Biotek® (Winooski, VT, USA). The collagenase inhibitory activity of each sample was determined in triplicate, according to the following equation:(1) Collagenase inhibitory activity %=A1−A2/A1×100 where A1 and A2 represent the absorbance in the absence and presence of sample, respectively.

The target of data set [2] is porcine pancreatic elastase (Sus scrofa, UniProt P00772). The experiment in a line: Elastase inhibitory assay. Format: biochemical. Particulars: 40 µL of 1000 µg/mL stock; EGCG 250 μM. The procedure: The elastase inhibition was tested according to the method described by […] et al.. First, a stock solution of each surfactant at 1000 μg/mL was prepared in sterile ultrapure water. A stock solution of porcine pancreatic elastase at 3.33 mg/mL in sterile ultrapure water was also prepared. The substrate […] (Ala) 3-p-nitroanilide was dissolved in 0.2 mM Tris-HCl buffer solution (pH 8.0). The samples (40 μL) were then diluted and incubated together with the enzyme for 15 min prior to the substrate addition. Negative control was sterile ultrapure water, while EGCG (250 μM or 0.114 mg/mL) was used as the positive control. The absorbance at λ = 410 nm was measured immediately after the substrate addition and continuously during the next 2 h using an Elx800 Microplate Reader (Biotek®). […] The anti-elastase activity (in %), determined in triplicate, was calculated according to the following equation:(2) Elastase inhibitory activity %=A1-A2/A1×100 where A1 and A2 represent the absorbance in the absence and presence of the testing samples, respectively.

The subject of the next data set is bovine hyaluronidase. The experiment in a line: Hyaluronidase inhibitory activity. Format: biochemical. Particulars: positive control. The procedure: The hyaluronidase inhibitory activity was performed according to the method used by Altinyay et al. with some modifications. Briefly, a work solution containing bovine hyaluronidase (7900 units/mL) in 0.1 M acetate buffer (pH 3.6) was prepared. Fifty microliters of the work solution were mixed 1:1 with the surfactants’ solution in 5% DMSO. For the negative control, 50 μL of 5% DMSO was used, while EGCG was used as positive control. After 20 min of incubation at 37 °C, 50 μL of calcium chloride (12.5 mM) was added to the mixture and again incubated for 20 min at 37 °C. At that point, 250 μL sodium hyaluronate (1.2 mg/mL) was added and incubated for 40 min at 37 °C. After incubation, the mixture was treated with 50 μL of 0.4 M NaOH and 100 μL of 0.2 M sodium borate and then incubated for 3 min in a boiling water bath. After cooling to room temperature, 1.4 mL of p-dimethylaminobenzaldehyde solution was added to the reaction mixture, being further incubated at 37 °C for 20 min. The resulting colored solution was measured at λ = 585 nm (PerkinElmer-Lambda 35, Brazil). The hyaluronidase inhibitory activity of each sample was calculated according to the following formula:(3) Hyaluronidase inhibitory activity %=A1−A2/A1×100 where A1 and A2 represent the absorbance in the absence and presence of the testing sample, respectively.

Data set [3] in a line: Water solubility (qualitative). Format: physicochemical. To be noted: qualitative statement. From the text:
In all cases, the pKap values are smaller than those described by Fitch, as well as those cited in many biochemistry textbooks. The presence of fatty chains in arginine surfactants induces the formation of aggregates in which the positive charges are close to each other. As a result, the repulsion between these charges induces the release of protons, thus increasing the acid character of the compound. The cmc is mainly governed by the hydrophobic content of the molecules. For the same spacer chain, the cmc drastically decreases as the alkyl chain increases. For the same alkyl chain of 12 carbon atoms, the cmc slightly diminishes as the number of the methylene groups in the spacer increases. Unconventional aggregation behavior and two cmcs were inferred from different techniques. The first cmcs, inferred primarily from tension data, are between 0.002 and 0.005 mM. Fluorescence and conductivity experiments indicated a second cmc at concentrations two orders of magnitude higher than that from surface tension (0.3–0.6 mM). The low cmc obtained by surface tension measurements was ascribed to non-globular aggregates with small aggregation numbers larger than two or three, given the nearly constant surface tension above these cmc. The surface tension values at the first cmc were in the same order for all gemini surfactants. […]

The subject of data set [4] is Gram-positive and Gram-negative bacteria. Kind of data set: Minimum inhibitory concentration (MIC), broth microdilution. To be noted: planktonic bacteria, 24 h at 37 °C, values only in Figure 2. Format: cell-based. From the text:
The Gram-positive bacteria tested include some problematic microorganisms such us L. monocytogenes; these bacteria cause listeriosis, a serious disease that has grown considerably in industrialized countries due to the increased ratio of immunosuppressed persons and the extensive use of refrigerated food. We have also tested the effectivity of these surfactants against methicillin-resistant Staphylococcus aureus (MRSA), which is known as a major cause of hospital-acquired infections and, at this time, is a remarkable public health problem. […] For comparison, this figure also includes the MIC values of a LAM (lauroyl arginine methyl ester) surfactant that can be considered the single-stranded homologue of these geminis and the BAC (benzalkonium ammonium chloride), a quaternary ammonium surfactant widely used as antiseptic.
Antimicrobial tests were carried out against the following microorganisms: Bacillus subtilis ATCC 6633, Staphylococcus epidermidis ATCC 12228, Staphylococcus aureus ATCC 29213, Listeria monocytogenes ATCC 15313, Enterococcus faecalis ATCC 29212, Escherichia coli ATCC 25922, Acinetobacter baumannii ATCC 19606, Klebsiella aerogenes ATCC 13048, methicillin-resistant Staphylococcus aureus ATCC 43300 and Pseudomonas aeruginosa PAO1. […] The growth of the microorganisms was determined visually after incubation for 24 h at 37 °C. […]
On the technique in general: Dilution methods test growth across graded concentrations, often in twofold steps.

The subject of data set [5] is Pseudomonas aeruginosa PAO1 biofilm. Kind of data set: Biofilm eradication, crystal violet. To be noted: P. aeruginosa PAO1, at 32 μg/mL. Format: cell-based. Here is the method:
(§1) The ability of these geminis to disperse and eradicate biofilms once formed on the propylene surfaces of the microtiter plates was evaluated using the same bacterial strains. […] The susceptibility of both biofilms against the tested surfactants was similar. At a low concentration of 32 μg/mL, C3(CA)2 and C3(LA)2 were able to eradicate around 60–70% of preformed biofilm; however, at this concentration, the […] hydrophobic compound, C3(OA)2, eradicated less than 30% of biofilm. At high concentrations, the eradication percentage is similar for all alkyl chains. […] In this case, at low concentrations, there is not a clear dependence between the antibiofilm properties and the spacer; however, at a high concentration, the best effectivity was obtained for the longer spacer chains.
(§2) Antibiofilm activity was assessed against biofilm-producing strains of methicillin-resistant Staphylococcus aureus (MRSA) ATCC 43300 and Pseudomonas aeruginosa PAO1. Biofilm inhibition and eradication capacities of the gemini surfactants were evaluated against adherent bacterial biofilms grown in 96-well microtiter plates. Bacteria were grown overnight in tryptic soy agar at 37 °C for 24 h. The bacteria were suspended in lysogeny broth with glucose (1%) at 1.5 × 10^8 CFU/mL.
(§3) Biofilm eradication procedure: For mature biofilm formation, 200 μL of the diluted bacterial suspension was added to each well in a 96-well microplate and incubated at 37 °C for 24 h. The wells were gently rinsed with phosphate-buffered saline (PBS) and 200 μL of the corresponding gemini surfactant solution was added to each well and incubated again at 37 °C for 24 h. Two-fold serial dilutions of the gemini surfactant were used (4–128 μg/mL). After the plates were air dried, the biofilms were stained with 50 μL of 0.1 of % crystal violet for 25 min. The plates were rinsed with water and then 150 μL of 96% ethanol containing 10% acetic acid was added to all 96-well plates to dissolve the remaining crystal violet-stained biofilm. The absorbance value was recorded at 570 nm. Each assay was conducted at least three times and the results were averaged.

Data set [6] relates to methicillin-resistant Staphylococcus aureus (MRSA) ATCC 43300 biofilm. The experiment in a line: Biofilm eradication, crystal violet. In kind it is cell-based. Particulars: at 32 μg/mL. Here is the method:
as §1, §2, §3

Details of data set [7]: method as in doi:10.1021/la981295l. Particulars: cited from earlier work.
Details of data set [8]: method as in doi:10.1021/la981295l. Particulars: cited from earlier work. The source holds these as a separate data set.
Details of data set [9]: method as in doi:10.1021/la981295l. To be noted: cited from earlier work. This is another data set of the same source.

The structures appear in SMILES notation. Marks after values point to notes of the source that are not given here.

Data on two molecules can be found in paper PMC10536132, “Arginine Gemini-Based Surfactants for Antimicrobial and Antibiofilm Applications: Molecular Interactions, Skin-Related Anti-Enzymatic Activity and Cytotoxicity” (Molecules, 2023).

porcine pancreatic elastase, sequence (P00772 27-266): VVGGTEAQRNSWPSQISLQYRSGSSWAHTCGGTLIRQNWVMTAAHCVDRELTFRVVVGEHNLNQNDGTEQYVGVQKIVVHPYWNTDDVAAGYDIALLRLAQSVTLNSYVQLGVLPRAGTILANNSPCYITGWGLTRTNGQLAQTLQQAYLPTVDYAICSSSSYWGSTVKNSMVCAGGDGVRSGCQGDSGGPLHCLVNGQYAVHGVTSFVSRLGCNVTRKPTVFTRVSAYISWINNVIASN

In the case of `O=C(O[C@@H]1Cc2c(O)cc(O)cc2O[C@@H]1c1cc(O)c(O)c(O)c1)c1cc(O)c(O)c(O)c1` [EGCG, epigalocatequin-3-galate, reference compound], in data set [1], the “anti-collagenase activity (inhibition)” value was found to be 54.2%. Besides, the “anti-elastase activity (inhibition)” value in [2] was 67.3%. The hyaluronidase inhibitory activity in the data set with bovine hyaluronidase is given as 13%.

As to `CCCCCCCCCC(=O)NC(CCCNC(=N)N)C(=O)NCCCNC(=O)C(CCCNC(=N)N)NC(=O)CCCCCCCCC` (centres unmarked) [C3(CA)2], the water solubility result in data set [3] is on record as “very good water solubility”. Further, the “antimicrobial activity (MIC), in words” value in data set [4] is “most active against all tested microorganisms”. Further, the preformed biofilm eradicated in [5] and in data set [6] was 60–70% throughout. For the same molecule, in [7], the “CMC (mM) Conductivity” value is listed as 2 * mM. Also, in data set [8], the “CMC (mM) Fluorescence” value was 3 * mM. Besides, the “CMC (mM) Surface Tension” value in data set [9] was 0.043 * mM. Moreover, the γcmc in data set [9] (surface tension at the cmc) was 32 * mN/m.
